Measurements reported in PubChem BioAssay AID588733 (Vanderbilt Specialized Chemistry Center, 2011).
The source made the active and inactive calls. No rule for the calls is given here.

Target: Metabotropic glutamate receptor 2 (Rattus norvegicus) (UniProt P31421)
Assay: rat mGlu2 allosteric modulation, glutamate curve shift, thallium flux, GIRK cells (AID 588733)
Conditions: glutamate CRC fold shift, at 10 µM, hits give high values

Chain of Metabotropic glutamate receptor 2 (Rattus norvegicus) (P31421 whole entry, looked up): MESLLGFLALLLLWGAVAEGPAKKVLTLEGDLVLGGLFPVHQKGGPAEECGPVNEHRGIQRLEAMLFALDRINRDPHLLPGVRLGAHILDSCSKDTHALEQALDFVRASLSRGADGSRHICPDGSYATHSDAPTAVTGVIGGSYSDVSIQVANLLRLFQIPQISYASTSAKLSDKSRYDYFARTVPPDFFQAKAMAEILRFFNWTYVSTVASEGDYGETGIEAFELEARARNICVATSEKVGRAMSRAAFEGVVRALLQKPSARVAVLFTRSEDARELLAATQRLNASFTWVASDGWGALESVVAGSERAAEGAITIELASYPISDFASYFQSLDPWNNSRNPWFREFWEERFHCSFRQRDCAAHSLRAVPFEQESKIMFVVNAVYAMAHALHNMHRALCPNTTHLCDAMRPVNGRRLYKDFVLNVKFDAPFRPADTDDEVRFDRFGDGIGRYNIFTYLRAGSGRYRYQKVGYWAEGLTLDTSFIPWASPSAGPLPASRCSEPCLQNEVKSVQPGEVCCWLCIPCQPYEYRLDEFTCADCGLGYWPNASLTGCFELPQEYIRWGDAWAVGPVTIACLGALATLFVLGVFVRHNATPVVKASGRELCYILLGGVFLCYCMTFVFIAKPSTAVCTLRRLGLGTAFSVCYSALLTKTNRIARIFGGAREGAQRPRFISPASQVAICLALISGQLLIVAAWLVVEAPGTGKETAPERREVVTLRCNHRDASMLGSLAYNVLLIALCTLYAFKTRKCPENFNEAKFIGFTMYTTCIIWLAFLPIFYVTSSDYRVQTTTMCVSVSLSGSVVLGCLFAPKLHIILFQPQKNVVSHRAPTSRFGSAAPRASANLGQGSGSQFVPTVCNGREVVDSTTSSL

| fold shift | SMILES |
| --- | --- |
| 0.92 (inactive) | CC1(NC(=O)c2ccc(C#Cc3cccc(F)c3)cn2)COC1 |
| 1.02 (inactive) | C[C@@H](NC(=O)c1ccc(C#Cc2cccc(F)c2)cn1)C(C)(C)O |
